The values below are quoted from earlier work in article PMC12399788, “A Comparison of the Molecular Pharmacological Properties of Current Short, Long, and Ultra‐Long‐Acting β2‐Agonists Used for Asthma and COPD” (Pharmacology Research & Perspectives, 2025).

For data set [1], the system named is guinea pig tracheal. More on the design: method as in PMID 20402514. The conditions noted are these: guinea pig tracheal studies.
For data set [2], the system named is conscious guinea pigs. The following applies: equipotent nebulized agents.
Data set [3] concerns human trachea.
In data set [4] the test system is human lung (mast cells). The conditions noted are these: histamine release from human lung (mast cells).

Consider `COc1ccc(CC(C)NCC(O)c2ccc(O)c(NC=O)c2)cc1` (centres unmarked) [Formoterol, formoterol], for which the duration in data set [1] is 1.2 h. In addition, the bronchodilation duration in data set [2] is given as 3 h. Besides, in data set [3], the duration of action is on record as 34 min and the “duration of action relative to salbutamol” value is recorded as 4.5 times longer.

In the case of `CCc1cc2c(cc1CC)CC(NC[C@H](O)c1ccc(O)c3[nH]c(=O)ccc13)C2` [Indacaterol, indacaterol], the duration result in data set [1] is listed as “over 12 h”.

For the molecule `CC(C)(C)NCC(O)c1ccc(O)c(CO)c1` (centres unmarked) [Salbutamol, salbutamol], the duration in data set [1] is on record as 0.9 h. Further, the “time by which response was lost” value in data set [4] is given as not above 4 h. Further, the bronchodilation duration entry in data set [2] is “less than 1.5 h”. In addition, the duration of action in data set [3] was 7.6 min.

For `OCc1cc(C(O)CNCCCCCCOCCCCc2ccccc2)ccc1O` (centres unmarked) [Salmeterol, salmeterol], the “response remaining (% maximal)” value in data set [4] (at 20 h) is reported as 75%. Moreover, in data set [2] (6 h), the “bronchodilation at 6 h” value is recorded as “no reduction”.
